Measured values published in the NIST ThermoML archive (doi:10.1021/je900596d).
Numbers after ± are expanded uncertainties.

Settings: Liquid; for mass density: Vibrating tube method; for vapor or sublimation pressure: Closed cell (Static) method

SMILES: FC(F)=C(F)C(F)(F)F [hexafluoropropene]
- mass density (263.49 K, 9976.6 kPa): 1506.02 ± 1.6 kg/m3
- vapor or sublimation pressure (268.24 K): 272 ± 1.1 kPa
- vapor or sublimation pressure (273.24 K): 326.8 ± 1.2 kPa
- vapor or sublimation pressure (278.21 K): 389 ± 1.3 kPa
- vapor or sublimation pressure (278.22 K): 388.6 ± 1.3 kPa
- mass density (283.17 K, 467.7 kPa): 1382.09 ± 1.4 kg/m3
- mass density (283.17 K, 472.9 kPa): 1382.09 ± 1.4 kg/m3
- mass density (283.17 K, 473.5 kPa): 1382.21 ± 1.4 kg/m3
- mass density (283.17 K, 478.6 kPa): 1382.26 ± 1.4 kg/m3
- mass density (283.17 K, 483 kPa): 1382.29 ± 1.4 kg/m3
- mass density (283.17 K, 491.9 kPa): 1382.32 ± 1.4 kg/m3
- mass density (283.17 K, 493.1 kPa): 1382.39 ± 1.4 kg/m3
- mass density (283.17 K, 504.9 kPa): 1382.43 ± 1.4 kg/m3
- mass density (283.17 K, 526.8 kPa): 1382.57 ± 1.4 kg/m3
- mass density (283.17 K, 533.6 kPa): 1382.61 ± 1.4 kg/m3
- mass density (283.17 K, 540.4 kPa): 1382.7 ± 1.4 kg/m3
- mass density (283.17 K, 548.7 kPa): 1382.78 ± 1.4 kg/m3
- mass density (283.17 K, 574 kPa): 1382.98 ± 1.4 kg/m3
- mass density (283.17 K, 583 kPa): 1382.99 ± 1.4 kg/m3
- mass density (283.17 K, 602 kPa): 1383.21 ± 1.4 kg/m3
- mass density (283.17 K, 637 kPa): 1383.38 ± 1.4 kg/m3
- mass density (283.17 K, 662.9 kPa): 1383.6 ± 1.4 kg/m3
- mass density (283.17 K, 691.4 kPa): 1383.74 ± 1.4 kg/m3
- mass density (283.17 K, 716 kPa): 1383.92 ± 1.4 kg/m3
- mass density (283.17 K, 731.4 kPa): 1384.12 ± 1.4 kg/m3
- mass density (283.17 K, 751.9 kPa): 1384.27 ± 1.4 kg/m3
- mass density (283.17 K, 766.8 kPa): 1384.29 ± 1.4 kg/m3
- mass density (283.17 K, 790.1 kPa): 1384.57 ± 1.4 kg/m3
- mass density (283.17 K, 833.3 kPa): 1384.9 ± 1.4 kg/m3
- mass density (283.17 K, 856.3 kPa): 1384.98 ± 1.4 kg/m3
- mass density (283.17 K, 882.3 kPa): 1385.18 ± 1.4 kg/m3
- mass density (283.17 K, 902.7 kPa): 1385.3 ± 1.4 kg/m3
- mass density (283.17 K, 924.8 kPa): 1385.58 ± 1.4 kg/m3
- mass density (283.17 K, 945.6 kPa): 1385.66 ± 1.4 kg/m3
- mass density (283.17 K, 965.5 kPa): 1385.81 ± 1.4 kg/m3
- mass density (283.17 K, 988.4 kPa): 1386.02 ± 1.4 kg/m3
- mass density (283.17 K, 1017 kPa): 1386.11 ± 1.4 kg/m3
- mass density (283.17 K, 1047.4 kPa): 1386.36 ± 1.4 kg/m3
- mass density (283.17 K, 1072.3 kPa): 1386.5 ± 1.4 kg/m3
- mass density (283.17 K, 1098.6 kPa): 1386.88 ± 1.4 kg/m3
- mass density (283.17 K, 1125.8 kPa): 1386.96 ± 1.4 kg/m3
- mass density (283.17 K, 1165.1 kPa): 1387.2 ± 1.4 kg/m3
- mass density (283.17 K, 1199.3 kPa): 1387.58 ± 1.4 kg/m3
- mass density (283.17 K, 1251 kPa): 1387.98 ± 1.4 kg/m3
- mass density (283.17 K, 1286 kPa): 1388.12 ± 1.4 kg/m3
- mass density (283.17 K, 1320.8 kPa): 1388.36 ± 1.4 kg/m3
- mass density (283.17 K, 1354.8 kPa): 1388.62 ± 1.4 kg/m3
- mass density (283.17 K, 1394.7 kPa): 1388.89 ± 1.4 kg/m3
- mass density (283.17 K, 1427.8 kPa): 1389.18 ± 1.4 kg/m3
- mass density (283.17 K, 1463.5 kPa): 1389.43 ± 1.4 kg/m3
- mass density (283.17 K, 1507.4 kPa): 1389.74 ± 1.4 kg/m3
- mass density (283.17 K, 1549.2 kPa): 1389.92 ± 1.4 kg/m3
- mass density (283.17 K, 1591 kPa): 1390.31 ± 1.4 kg/m3
- mass density (283.17 K, 1634.6 kPa): 1390.61 ± 1.4 kg/m3
- mass density (283.17 K, 1720.9 kPa): 1391.22 ± 1.4 kg/m3
- mass density (283.17 K, 1765.5 kPa): 1391.52 ± 1.4 kg/m3
- mass density (283.17 K, 1806 kPa): 1391.83 ± 1.4 kg/m3
- mass density (283.17 K, 1849 kPa): 1391.99 ± 1.4 kg/m3
- mass density (283.17 K, 1895 kPa): 1392.44 ± 1.4 kg/m3
- mass density (283.17 K, 1935.4 kPa): 1392.64 ± 1.4 kg/m3
- mass density (283.17 K, 1975.7 kPa): 1392.98 ± 1.4 kg/m3
- mass density (283.17 K, 2022.9 kPa): 1393.24 ± 1.4 kg/m3
- mass density (283.17 K, 2076.3 kPa): 1393.62 ± 1.4 kg/m3
- mass density (283.17 K, 2128.3 kPa): 1394 ± 1.4 kg/m3
- mass density (283.17 K, 2174.7 kPa): 1394.46 ± 1.4 kg/m3
- mass density (283.17 K, 2219 kPa): 1394.73 ± 1.4 kg/m3
- mass density (283.17 K, 2306.2 kPa): 1395.23 ± 1.4 kg/m3
- mass density (283.17 K, 2350.5 kPa): 1395.59 ± 1.4 kg/m3
- mass density (283.17 K, 2406.1 kPa): 1396.02 ± 1.4 kg/m3
- mass density (283.17 K, 2455.4 kPa): 1396.26 ± 1.4 kg/m3
- mass density (283.17 K, 2506.6 kPa): 1396.64 ± 1.4 kg/m3
- mass density (283.17 K, 2551.5 kPa): 1396.81 ± 1.4 kg/m3
- mass density (283.17 K, 2593.9 kPa): 1397.25 ± 1.4 kg/m3
- mass density (283.17 K, 2644 kPa): 1397.48 ± 1.4 kg/m3
- mass density (283.17 K, 2684 kPa): 1397.73 ± 1.4 kg/m3
- mass density (283.17 K, 2734.9 kPa): 1398.07 ± 1.4 kg/m3
- mass density (283.17 K, 2785.7 kPa): 1398.39 ± 1.4 kg/m3
- mass density (283.17 K, 2848.1 kPa): 1398.74 ± 1.4 kg/m3
- mass density (283.17 K, 2900.4 kPa): 1399.13 ± 1.4 kg/m3
- mass density (283.17 K, 2951 kPa): 1399.5 ± 1.4 kg/m3
- mass density (283.17 K, 3020.7 kPa): 1400.01 ± 1.4 kg/m3
- mass density (283.17 K, 3136.8 kPa): 1400.76 ± 1.4 kg/m3
- mass density (283.17 K, 3180.2 kPa): 1400.96 ± 1.4 kg/m3
- mass density (283.17 K, 3236.8 kPa): 1401.44 ± 1.4 kg/m3
- mass density (283.17 K, 3291.9 kPa): 1401.74 ± 1.4 kg/m3
- mass density (283.17 K, 3350 kPa): 1402.05 ± 1.4 kg/m3
- mass density (283.17 K, 3394.2 kPa): 1402.39 ± 1.4 kg/m3
- mass density (283.17 K, 3434.9 kPa): 1402.61 ± 1.4 kg/m3
- mass density (283.17 K, 3476.3 kPa): 1403.01 ± 1.4 kg/m3
- mass density (283.17 K, 3535.7 kPa): 1403.26 ± 1.4 kg/m3
- mass density (283.17 K, 3591.4 kPa): 1403.66 ± 1.4 kg/m3
- mass density (283.17 K, 3653.3 kPa): 1403.98 ± 1.4 kg/m3
- mass density (283.17 K, 3709.6 kPa): 1404.3 ± 1.4 kg/m3
- mass density (283.17 K, 3821.9 kPa): 1405.06 ± 1.4 kg/m3
- mass density (283.17 K, 3864.3 kPa): 1405.48 ± 1.4 kg/m3
- mass density (283.17 K, 3907.8 kPa): 1405.66 ± 1.4 kg/m3
- mass density (283.17 K, 3949 kPa): 1405.94 ± 1.4 kg/m3
- mass density (283.17 K, 4020.4 kPa): 1406.43 ± 1.4 kg/m3
- mass density (283.17 K, 4078.5 kPa): 1406.71 ± 1.4 kg/m3
- mass density (283.17 K, 4127.6 kPa): 1407.05 ± 1.4 kg/m3
- mass density (283.17 K, 4182.4 kPa): 1407.4 ± 1.4 kg/m3
- mass density (283.17 K, 4239.6 kPa): 1407.72 ± 1.4 kg/m3
- mass density (283.17 K, 4293.4 kPa): 1408.17 ± 1.4 kg/m3
- mass density (283.17 K, 4409.9 kPa): 1408.82 ± 1.4 kg/m3
- mass density (283.17 K, 4465.6 kPa): 1409.18 ± 1.4 kg/m3
- mass density (283.17 K, 4516.2 kPa): 1409.47 ± 1.4 kg/m3
- mass density (283.17 K, 4620.4 kPa): 1410.09 ± 1.4 kg/m3
- mass density (283.17 K, 4676.1 kPa): 1410.42 ± 1.4 kg/m3
- mass density (283.17 K, 4728.4 kPa): 1410.73 ± 1.4 kg/m3
- mass density (283.17 K, 4783.7 kPa): 1411.1 ± 1.4 kg/m3
- mass density (283.17 K, 4835.3 kPa): 1411.33 ± 1.4 kg/m3
- mass density (283.17 K, 4889.5 kPa): 1411.65 ± 1.4 kg/m3
- mass density (283.17 K, 4943.6 kPa): 1412.08 ± 1.4 kg/m3
- mass density (283.17 K, 4996 kPa): 1412.33 ± 1.4 kg/m3
- mass density (283.17 K, 5057.6 kPa): 1412.68 ± 1.4 kg/m3
- mass density (283.17 K, 5126.3 kPa): 1413.1 ± 1.4 kg/m3
- mass density (283.17 K, 5167.5 kPa): 1413.34 ± 1.4 kg/m3
- mass density (283.17 K, 5237.5 kPa): 1413.76 ± 1.4 kg/m3
- mass density (283.17 K, 5303.9 kPa): 1414.14 ± 1.4 kg/m3
- mass density (283.17 K, 5372.7 kPa): 1414.61 ± 1.4 kg/m3
- mass density (283.17 K, 5504.1 kPa): 1415.44 ± 1.4 kg/m3
- mass density (283.17 K, 5572.6 kPa): 1415.73 ± 1.4 kg/m3
- mass density (283.17 K, 5644.7 kPa): 1416.12 ± 1.4 kg/m3
- mass density (283.17 K, 5720.2 kPa): 1416.66 ± 1.4 kg/m3
- mass density (283.17 K, 5786.5 kPa): 1416.98 ± 1.4 kg/m3
- mass density (283.17 K, 5855.5 kPa): 1417.42 ± 1.4 kg/m3
- mass density (283.17 K, 5920.9 kPa): 1417.74 ± 1.4 kg/m3
- mass density (283.17 K, 5997.2 kPa): 1418.2 ± 1.4 kg/m3
- mass density (283.17 K, 6065.1 kPa): 1418.58 ± 1.4 kg/m3
- mass density (283.17 K, 6130.5 kPa): 1419 ± 1.4 kg/m3
- mass density (283.17 K, 6196 kPa): 1419.33 ± 1.4 kg/m3
- mass density (283.17 K, 6260.9 kPa): 1419.73 ± 1.4 kg/m3
- mass density (283.17 K, 6326.3 kPa): 1420.11 ± 1.5 kg/m3
- mass density (283.17 K, 6398.7 kPa): 1420.44 ± 1.5 kg/m3
